# From patent US20260199289A1, “USE OF GLYCOGEN METABOLISM INHIBITORS FOR THE TREATMENT OF CANCER” (THE UNIVERSITY OF VERMONT AND STATE AGRICULTURAL COLLEGE, priority 2022, published 2026)
# “Also recorded” adds a separate entry of the source. Where two headings read alike, the source gives them in different places.
# Experiments:
# [1] = tested on: Nthy-ori-3-1 cells; assay: Immunoblot of apoptosis markers and Ki-67 in normal thyroid cells; type: cell-based, human
# Procedure: Briefly, proteins were isolated from whole cells in lysis buffer (20 mM Tris-HCl (pH 8), 137 mM NaCl, 10% glycerol, 1% Triton X-100, and 2 mM EDTA), quantified via Pierce™ BCA Protein Assay Kit (Thermo Fisher Scientific), and 25 μg protein/sample were resolved by polyacrylamide gel electrophoresis and immobilized onto nitrocellulose membranes. Membranes were blocked with 5% w/v BSA in TBS and 0.1% v/v Tween20 (Gold Bio, St Louis, MO, USA) for one hour at room temperature and incubated with primary antibodies overnight. Membranes were washed with TBS-0.1% Tween20 and secondary antibodies were applied for 1 hour at room temperature in 5% w/v BSA in TBS and 0.1% v/v Tween20. Immunoreactive proteins were detected by enhanced chemiluminescence (Thermo Scientific) on a ChemiDoc XRS+ (Bio-Rad Laboratories). Densitometry analysis was performed using ImageJ.
# [2] = tested on: 8505C cells; assay: Cell attachment to fibronectin-coated plates; type: cell-based, human; conditions: 24 hours of 50 μM CP treatment
# Source text: Cells were washed with PBS and lifted with trypsin.
# [3] = tested on: 8505C cells; assay: Glycogen content (colorimetric assay, TEM) in ATC cells; type: cell-based, human; conditions: ATC cells (8505C), CP-91,149 50 μM, 24-hour incubation, colorimetry and TEM
# Procedure: Transmission Electron Microscopy of Glycogen Deposits—Cells were seeded in 10 cm dishes and allowed to adhere overnight. […] Cells were then rinsed with PBS and lifted with trypsin for preparation for TEM as described previously. Thwe et al., “Cell-intrinsic Glycogen Metabolism Supports Early Glycolytic Reprogramming Required for Dendritic Cell Immune Responses,” Cell Metabolism 26:558-567.e555 (2017), which is hereby incorporated by reference in its entirety.
# PYGB RNA Interference—For validating successful PYGB knockdown, 4.0×10^4 cells were plated in 12 well plates containing 0.2% Lipofectamine™ 3000 Transfection Reagent and the indicated concentration of siRNA targeting PYGB or control siRNA in 1 ml CTM. RNA was extracted 72 hours later for RT-qPCR analysis and protein was extracted 96 hours later for immunoblotting. For measuring the effect of PYGB knockdown on cell viability, 1.0×10^3 cells were seeded in 96 well plates with 0.15% Lipofectamine™ 3000 Transfection Reagent and the indicated concentration of siRNA targeting PYGB or control siRNA in 200 μl CTM for 7 days before conducting the SRB assay. For measuring the effect of PYGB knockdown on glycogen content, 6.5×10^5 cells were seeded in 10 cm dishes with 0.2% Lipofectamine™ 3000 Transfection Reagent and the indicated concentration of siRNA targeting PYGB or control siRNA in 10 ml CTM for 4 days preceding cell lysis for glycogen determination.
# Quantification of Levels of Glycogen, Glucose-1-Phosphate, Glucose-6-Phosphate, Lactate, ATP, Glucose, NADPH, and Glutathione—Briefly, cells were seeded in 10 cm dishes (for measuring glycogen and NADPH), 6 well plates (GIP, G6P, lactate, glucose, and glutathione), or 96 well plates (ATP) and allowed to adhere overnight. CTM was aspirated and cells were rinsed with PBS before application of compounds dissolved in CTM for 24 hours, at which point cells were ~90% confluent. CTM was then aspirated, cells were rinsed with PBS, and lysed according to the respective manufacturer protocol (see Table 4) for metabolite analysis.
# [4] = tested on: 8505C cells; assay: Reactive oxygen species quantification (H2DCFDA); type: cell-based, human; conditions: for reactive oxygen species (ROS) levels: 8505C ATC cells
# Procedure: Quantification of Reactive Oxygen Species—Thyroid cells (1.0-2.0×10^4) were seeded in a black 96 well plate in 200 μl CTM and allowed to adhere overnight. Wells were washed with PBS and incubated with or without 25 μM H2DCFDA for 45 minutes at 37° C. in a non-CO2 incubator with compounds of interest diluted in phenol-red free RPMI (supplemented with 2 mM glutamine and 10% charcoal-stripped serum). Wells were washed with PBS and received compounds of interest diluted in phenol-red free, supplemented RPMI and incubated at 37° C. in a SpectraMax M4 Microplate Reader (Molecular Devices) to record fluorescent measurements (Ex/Em=485/535 nm) every 15 minutes overnight. Maximum fluorescence intensity was determined (~6 hours), background signal (—H2DCFDA) was subtracted from each group, and corrected values were normalized to the vehicle control.
# [5] = mouse, in vivo
# Procedure: Four-week-old athymic female nude mice (outbred homozygous nude Foxn1^nu/Foxn1^nu) were purchased from Jackson Laboratory (Bar Harbor, ME, USA) and were allowed to acclimatize for one week. Mice were given food and water ad libitum. Mice were anesthetized using 3% isoflurane delivered at 1.5 L/min, and tumors were established by subcutaneously injecting 1×10^6 8505C cells with a 26G needle in 100 μL of high concentration Matrigel (Corning Inc.) diluted 1:2 with base RPMI-1640 into each flank of 24 mice. One week later, mice were sorted into four treatment groups to achieve approximately equal body weights between mice. […] Pharmacological agents were dissolved in 100% DMSO and diluted daily in 30% DMSO, 40% PEG300, and 30% PBS and incubated at 55° C. for 10 minutes prior to vortexing to encourage complete solubilization. Tumor dimensions were measured with digital calipers, and the volumes were calculated by the following formula: (Π×a×b^2)/6, where a represents the largest diameter and b is the perpendicular diameter. The body weight of each animal was taken twice a week to measure toxicity. Mice were euthanized with carbon dioxide, and the tumors were harvested, fixed with formalin (Thermo Fisher Scientific), and stored at 4° C. prior to slide sectioning and immunofluorescence analysis.
# [6] = tested on: 8505C cells; assay: SRB cell viability assay in ATC cells; type: cell-based, human
# Procedure: In Vitro Cell Staining for Measuring Drug Efficacy—Thyroid cells (4.0×10^3) were seeded in 96 well plates with 100 μl CTM and allowed to adhere overnight. 100 μl of CTM containing 2× concentration of compound was overlayed in each well for 48 hours unless otherwise indicated. Each well then received 100 μl of 10% w/v cold trichloroacetic acid (Fisher) and incubated at 4° C. for 1 hour to fix the cells. Each well was rinsed 3× with DI H2O and stained with 100 μl 0.057% w/v sulforhodamine B (SRB, Sigma-Aldrich) for 30 minutes at room temperature in the dark. Wells were washed 4× with 300 μl 1% v/v acetic acid (Fisher), and remaining SRB stain was solubilized with 200 μl of 10 mM Tris buffer, pH 10.5 (Fisher). Absorbance was measured at 564 nm with a Synergy 2 Multi-Detection Microplate Reader (Agilent Technologies) and normalized to a vehicle control. Drug synergy was evaluated using the coefficient of drug interaction (CDI) formula: CDI=AB/(A×B)×100, where AB is the percent remaining cells of an indicated combination treatment, A is the average percent remaining cells of agent 1 alone, and B is the average percent remaining cells of agent 2 alone. […] Hao et al., “Effect of Lumiracoxib on Proliferation and Apoptosis of Human Nonsmall Cell Lung Cancer Cells In vitro,” Chin Med J (Engl) 121:602-607 (2008), which is hereby incorporated by reference in its entirety. […]
# [7] = tested on: 8505C cells; assay: Metabolic flux analysis (Seahorse ECAR and OCR); type: cell-based, human; conditions: for extracellular acidification rate (ECAR): 8505C cells; for oxygen consumption rate (OCR): 50 μM CP-91,149, 24 hours
# Procedure: Metabolic Flux Analysis—Thyroid cells (5.0×10^4) were plated in a 96 well Seahorse culture plate with compounds of interest diluted in 200 μl CTM for 24 hours. Cells were washed with PBS and equilibrated for 1 hour at 37° C. in a non-CO2 incubator with compounds of interest diluted in Seahorse RPMI (supplemented with 11.1 mM glucose, 2 mM glutamine, and 5% serum) before analysis of OCR and ECAR in a Metabolic Flux Analyzer (Seahorse Bioscience, North Billerica, MA 96XP).
structure (smiles),measurement,setting,value
"CN(C)C(=O)[C@H](O)[C@H](Cc1ccccc1)NC(=O)c1cc2cc(Cl)ccc2[nH]1 [CP-91,149, 5-chloro-N-[(2S,3R)-4-(dimethylamino)-3-hydroxy-4-oxo-1-phenylbutan-2-yl]-1H-indole-2-carboxamide]",apoptosis (PARP and caspase cleavage),[1],but not normal thyroid cells
same,apoptosis (PARP and caspase cleavage),[1]; listed as CP,did not significantly induce apoptosis
same,proliferation (Ki-67 levels),[1]; listed as CP,not affected
same,cell attachment to fibronectin-coated plates,[2],inhibits cell attachment
same,cell attachment to fibronectin-coated plates,[2]; listed as CP,inhibited the ability of 8505C cells to attach to fibronectin-coated plates
same,glycogen content,[3],increased glycogen content; also recorded: causes a buildup of glycogen
same,glycogen content,[3]; listed as CP,significantly increased glycogen content
same,reactive oxygen species (ROS) levels,[4],induced reactive oxygen species accumulation; also recorded: enhances the relative levels of reactive oxygen species
same,reactive oxygen species (ROS) levels,[4]; listed as CP,three-fold increase; also recorded: higher in cells treated with CP compared to 2-DG
same,ROS levels with excess glucose,[4]; 8505C cells,excess glucose reduced ROS levels only in CP-treated cells
same,toxicity (body weight),[5],low toxicity
same,cell viability with excess (2 mM) pyruvate,"[6]; 8505C cells, 48 hours",nearly identical to the pyruvate-depleted group
same,cell viability with excess (25 mM) glucose,"[6]; 8505C cells, 48 hours",rescued cell viability
same,cell viability with pyruvate depletion,"[6]; 8505C cells, 48 hours",able to compensate for loss of pyruvate
same,total cell viability,"[6]; ATC cells, 48 hours at 50 μM",modestly but significantly reduced total cell viability
same,"cell viability, concentration and time dependence (SRB assay)",[6]; various concentrations and time points,concentration-dependent decrease in cell viability; also recorded: decreases 8505C cell viability in a time-dependent manner
same,extracellular acidification rate (ECAR),[7],enhances extracellular acidification rate
same,extracellular acidification rate (ECAR),[7]; listed as CP,modestly but significantly enhanced ECAR
same,increase of OCR to compensate for inhibition of glycolysis with 2-DG,"[7]; ATC cells, CP-treated versus vehicle-treated",unable to increase their oxidative phosphorylation
same,oxygen consumption rate (OCR),[7]; ATC cells,decreases the basal oxygen consumption rate
same,oxygen consumption rate (OCR),"[7]; ATC cells, listed as CP",significantly limited the OCR
